Results published in publication PMC5218480 (PLoS ONE, 2017).

Test system: MV-4-11 cells
Experiment: Gene expression microarray analysis (Affymetrix PrimeView) and GSEA
Type: cell-based, human
Set-up: RFU PODN (11730768_x_at) / Fold change /veh PODN (11730768_x_at) / RFU LINC00158 (11744669_a_at) / Fold change /veh LINC00158 (11744669_a_at) / RFU DUSP10 (11751237_a_at) / Fold change /veh DUSP10 (11751237_a_at) / RFU ID3 (11757404_x_at) / Fold change /veh ID3 (11757404_x_at) / RFU PLEKHG5 (11737974_s_at) / Fold change /veh PLEKHG5 (11737974_s_at) / RFU LRRC4B (11730491_at) / Fold change /veh LRRC4B (11730491_at) / RFU GIMAP4 (11747438_a_at) / Fold change /veh GIMAP4 (11747438_a_at) / RFU KRT8 (11758183_x_at) / Fold change /veh KRT8 (11758183_x_at) / RFU CNN1 (11734310_a_at) / Fold change /veh CNN1 (11734310_a_at) / RFU VPS37D (11726825_at) / Fold change /veh VPS37D (11726825_at) / RFU C10orf10 (11716522_x_at) / Fold change /veh C10orf10 (11716522_x_at) / RFU KIR2DL2 /// KIR2DL4 /// KIR2DL5A /// KIR2DL5B /// KIR2DS1 /// KIR2DS2 /// KIR2DS3 /// KIR2DS4 /// KIR3DL3 /// KIR3DL3 /// KIR3DS1 (11738374_at) / Fold change /veh KIR2DL2 /// KIR2DL4 /// KIR2DL5A /// KIR2DL5B /// KIR2DS1 /// KIR2DS2 /// KIR2DS3 /// KIR2DS4 /// KIR3DL3 /// KIR3DL3 /// KIR3DS1 (11738374_at) / RFU C1QL1 (11718748_at) / Fold change /veh C1QL1 (11718748_at) / RFU TMPRSS4 (11747572_a_at) / Fold change /veh TMPRSS4 (11747572_a_at) / RFU HAMP (11756126_x_at) / Fold change /veh HAMP (11756126_x_at) / RFU RNFT2 (11725882_a_at) / Fold change /veh RNFT2 (11725882_a_at) / RFU NR4A2 (11747474_a_at) / Fold change /veh NR4A2 (11747474_a_at) / RFU ABCC12 (11746883_a_at) / Fold change /veh ABCC12 (11746883_a_at) / RFU TMEM136 (11760407_x_at) / Fold change /veh TMEM136 (11760407_x_at) / RFU CLDN22 /// WWC2 (11732394_at) / Fold change /veh CLDN22 /// WWC2 (11732394_at) / RFU HLA-DPB1 (11760878_x_at) / Fold change /veh HLA-DPB1 (11760878_x_at) / RFU SPINT1 (11716480_a_at) / Fold change /veh SPINT1 (11716480_a_at) / RFU GAP43 (11754022_s_at) / Fold change /veh GAP43 (11754022_s_at) / RFU A4GNT (11735810_at) / Fold change /veh A4GNT (11735810_at) / RFU PRB3 (11715151_x_at) / Fold change /veh PRB3 (11715151_x_at) / RFU TUBB4B (11761932_at) / Fold change /veh TUBB4B (11761932_at) / RFU CAPN14 (11732068_a_at) / Fold change /veh CAPN14 (11732068_a_at) / RFU TMCC2 (11721928_a_at) / Fold change /veh TMCC2 (11721928_a_at) / RFU IRGQ (11745062_a_at) / Fold change /veh IRGQ (11745062_a_at) / RFU FAM174B (11720279_a_at) / Fold change /veh FAM174B (11720279_a_at) / RFU TMPRSS4 (11748680_a_at) / Fold change /veh TMPRSS4 (11748680_a_at) / RFU FAM212B (11763350_a_at) / Fold change /veh FAM212B (11763350_a_at) / RFU PLEKHG5 (11743358_a_at) / Fold change /veh PLEKHG5 (11743358_a_at) / RFU ZSCAN30 (11745921_a_at) / Fold change /veh ZSCAN30 (11745921_a_at) / RFU CMKLR1 (11741424_a_at) / Fold change /veh CMKLR1 (11741424_a_at) / RFU LOC101060620 /// MAPK8IP1 (11723275_at) / Fold change /veh LOC101060620 /// MAPK8IP1 (11723275_at) / RFU SPTSSB (11747773_x_at) / Fold change /veh SPTSSB (11747773_x_at) / RFU PRSS12 (11739890_at) / Fold change /veh PRSS12 (11739890_at) / RFU BIN1 (11741810_x_at) / Fold change /veh BIN1 (11741810_x_at) / RFU WNT11 (11732464_a_at) / Fold change /veh WNT11 (11732464_a_at) / RFU C10orf10 (11716521_a_at) / Fold change /veh C10orf10 (11716521_a_at) / RFU C5orf56 (11738089_at) / Fold change /veh C5orf56 (11738089_at) / RFU CYB561 (11721691_x_at) / Fold change /veh CYB561 (11721691_x_at) / RFU ANKRD19P (11752326_a_at) / Fold change /veh ANKRD19P (11752326_a_at) / RFU OR2T12 /// OR2T33 /// OR2T8 (11738714_s_at) / Fold change /veh OR2T12 /// OR2T33 /// OR2T8 (11738714_s_at) / RFU VCAN (11748164_a_at) / Fold change /veh VCAN (11748164_a_at) / RFU JSRP1 (11732532_at) / Fold change /veh JSRP1 (11732532_at) / RFU KRTAP10-11 (11738290_x_at) / Fold change /veh KRTAP10-11 (11738290_x_at) / RFU MYO3A (11730013_a_at) / Fold change /veh MYO3A (11730013_a_at) / RFU EBF3 (11725865_a_at) / Fold change /veh EBF3 (11725865_a_at) / RFU CAMK2N1 (11719241_x_at) / Fold change /veh CAMK2N1 (11719241_x_at) / RFU C5orf56 (11738088_a_at) / Fold change /veh C5orf56 (11738088_a_at) / RFU OLFML3 (11715873_a_at) / Fold change /veh OLFML3 (11715873_a_at) / RFU LOC100653217 /// NTM (11731650_a_at) / Fold change /veh LOC100653217 /// NTM (11731650_a_at) / RFU MAPK11 (11762145_a_at) / Fold change /veh MAPK11 (11762145_a_at) / RFU FIZ1 (11724087_x_at) / Fold change /veh FIZ1 (11724087_x_at) / RFU OASL (11726364_x_at) / Fold change /veh OASL (11726364_x_at) / RFU SOX15 (11748057_x_at) / Fold change /veh SOX15 (11748057_x_at) / RFU CD79A (11719716_a_at) / Fold change /veh CD79A (11719716_a_at) / RFU HIST1H1D (11736915_at) / Fold change /veh HIST1H1D (11736915_at) / RFU CASKIN2 (11723855_a_at) / Fold change /veh CASKIN2 (11723855_a_at) / RFU LOC730098 (11760151_x_at) / Fold change /veh LOC730098 (11760151_x_at) / RFU OR4N2 (11742367_at) / Fold change /veh OR4N2 (11742367_at) / RFU PRRT2 (11749266_a_at) / Fold change /veh PRRT2 (11749266_a_at) / RFU SNX32 (11753110_a_at) / Fold change /veh SNX32 (11753110_a_at) / RFU CDHR5 (11726645_a_at) / Fold change /veh CDHR5 (11726645_a_at) / RFU RCAN1 (11760418_a_at) / Fold change /veh RCAN1 (11760418_a_at) / RFU FAM167A (11723789_a_at) / Fold change /veh FAM167A (11723789_a_at) / RFU FAM26E (11764081_at) / Fold change /veh FAM26E (11764081_at) / RFU ISYNA1 (11749810_s_at) / Fold change /veh ISYNA1 (11749810_s_at) / RFU ACY1 (11761880_at) / Fold change /veh ACY1 (11761880_at) / RFU 11764098_at / Fold change /veh 11764098_at / RFU SAMD14 (11745864_x_at) / Fold change /veh SAMD14 (11745864_x_at) / RFU NPB (11741838_a_at) / Fold change /veh NPB (11741838_a_at) / RFU TMPRSS6 (11731388_a_at) / Fold change /veh TMPRSS6 (11731388_a_at) / RFU KRTAP10-2 (11738614_at) / Fold change /veh KRTAP10-2 (11738614_at) / RFU ARHGAP8 /// PRR5-ARHGAP8 (11727945_x_at) / Fold change /veh ARHGAP8 /// PRR5-ARHGAP8 (11727945_x_at) / RFU KRTAP5-7 /// NADSYN1 (11734609_at) / Fold change /veh KRTAP5-7 /// NADSYN1 (11734609_at) / RFU RASL12 (11751679_a_at) / Fold change /veh RASL12 (11751679_a_at) / RFU CDKN2B (11736163_a_at) / Fold change /veh CDKN2B (11736163_a_at) / RFU PRF1 (11729649_at) / Fold change /veh PRF1 (11729649_at) / RFU, ZNF638 /// ZNF638-IT1 / Fold change vs veh, ZNF638 /// ZNF638-IT1 / RFU, PANK3 / Fold change vs veh, PANK3 / RFU, SH3YL1 / Fold change vs veh, SH3YL1 / RFU, ZEB2 / Fold change vs veh, ZEB2 / RFU, NRIP1 / Fold change vs veh, NRIP1 / RFU, PTTG1IP / Fold change vs veh, PTTG1IP / RFU, CAPN2 / Fold change vs veh, CAPN2 / RFU, MED14 / Fold change vs veh, MED14 / RFU, SNORA58 / Fold change vs veh, SNORA58 / RFU, C1orf63 / Fold change vs veh, C1orf63 / RFU, LRRFIP1 / Fold change vs veh, LRRFIP1 / RFU, NDUFAF7 / Fold change vs veh, NDUFAF7 / RFU, SLC12A2 / Fold change vs veh, SLC12A2 / RFU, IBTK / Fold change vs veh, IBTK / RFU, ESF1 / Fold change vs veh, ESF1 / Fold change vs veh, TMEM50B / RFU, TAOK1 / Fold change vs veh, TAOK1 / RFU, ACBD3 / Fold change vs veh, ACBD3 / RFU, TMA16 / Fold change vs veh, TMA16 / RFU, RWDD3 / Fold change vs veh, RWDD3 / RFU, BCAT1 / Fold change vs veh, BCAT1 / RFU, EDEM3 / Fold change vs veh, EDEM3 / RFU, TMEM33 / Fold change vs veh, TMEM33 / RFU, WDR75 / Fold change vs veh, WDR75 / RFU, AHCTF1 / Fold change vs veh, AHCTF1 / RFU, TFRC / Fold change vs veh, TFRC / RFU, ZDHHC17 / Fold change vs veh, ZDHHC17 / RFU, NOM1 / Fold change vs veh, NOM1 / RFU, ARL8B / Fold change vs veh, ARL8B / RFU, ZBTB11 / Fold change vs veh, ZBTB11 / RFU, TAMM41 / Fold change vs veh, TAMM41 / RFU, KIAA1704 /// LOC100996395 / Fold change vs veh, KIAA1704 /// LOC100996395 / RFU, ING1 / Fold change vs veh, ING1 / RFU, TRMT61B / Fold change vs veh, TRMT61B / RFU, FUBP3 / Fold change vs veh, FUBP3 / RFU, TP53 / Fold change vs veh, TP53 / RFU, TNKS2 / Fold change vs veh, TNKS2 / RFU, ZFP14 / Fold change vs veh, ZFP14 / RFU, ACTR2 / Fold change vs veh, ACTR2 / RFU, PPP3R1 / Fold change vs veh, PPP3R1 / RFU, PIK3R1 / Fold change vs veh, PIK3R1 / RFU, HNRNPA1 / Fold change vs veh, HNRNPA1 / RFU, RNF170 / Fold change vs veh, RNF170 / RFU, ZNF28 / Fold change vs veh, ZNF28 / RFU, RNGTT / Fold change vs veh, RNGTT / RFU, OGT / Fold change vs veh, OGT / RFU, BRD1 / Fold change vs veh, BRD1 / RFU, MARS / Fold change vs veh, MARS / RFU, ZNF655 / Fold change vs veh, ZNF655 / RFU, FAHD1 / Fold change vs veh, FAHD1 / RFU, BDP1 / Fold change vs veh, BDP1 / RFU, LRRCC1 / Fold change vs veh, LRRCC1 / RFU, ARID1A / Fold change vs veh, ARID1A / RFU, ZNF146 / Fold change vs veh, ZNF146 / RFU, ZNF330 / Fold change vs veh, ZNF330 / RFU, GPN3 / Fold change vs veh, GPN3 / RFU, C9orf123 / Fold change vs veh, C9orf123 / RFU, N4BP2L2 / Fold change vs veh, N4BP2L2 / RFU, ARFIP1 / Fold change vs veh, ARFIP1 / RFU, FAM179B / Fold change vs veh, FAM179B / RFU, BCL10 / Fold change vs veh, BCL10 / RFU, UHRF1BP1L / Fold change vs veh, UHRF1BP1L / RFU, BET1 / Fold change vs veh, BET1 / RFU, CNOT2 / Fold change vs veh, CNOT2 / RFU, ZNF268 / Fold change vs veh, ZNF268 / Fold change vs veh, ZNF507 / RFU, DGCR2 / Fold change vs veh, DGCR2 / RFU, WDSUB1 / Fold change vs veh, WDSUB1 / Fold change vs veh, HSP90B1 /// MIR3652 / RFU, ADSS / Fold change vs veh, ADSS / RFU, GK / Fold change vs veh, GK / RFU, ZNF148 / Fold change vs veh, ZNF148 / RFU, TAF9 / Fold change vs veh, TAF9 / RFU, SLC1A5 / Fold change vs veh, SLC1A5 / RFU, SLMO2 / Fold change vs veh, SLMO2 / RFU, ABCC4 / Fold change vs veh, ABCC4 / RFU, LOC101060439 /// RAP1B / Fold change vs veh, LOC101060439 /// RAP1B / RFU, RFX7 / Fold change vs veh, RFX7 / RFU, GTPBP10 / Fold change vs veh, GTPBP10 / RFU, CNEP1R1 / Fold change vs veh, CNEP1R1 / RFU, BIVM-ERCC5 /// ERCC5 / Fold change vs veh, BIVM-ERCC5 /// ERCC5 / RFU, ILF3 / Fold change vs veh, ILF3 / RFU 11762660_at / Fold change /veh 11762660_at / RFU VCAN (11757783_s_at) / Fold change /veh VCAN (11757783_s_at) / RFU DDX43 (11728927_at) / Fold change /veh DDX43 (11728927_at) / RFU KRT8 (11758188_x_at) / Fold change /veh KRT8 (11758188_x_at) / RFU NKD1 (11759106_at) / Fold change /veh NKD1 (11759106_at) / RFU SRD5A1 (11742802_a_at) / Fold change /veh SRD5A1 (11742802_a_at) / RFU TPSAB1 /// TPSB2 (11721975_s_at) / Fold change /veh TPSAB1 /// TPSB2 (11721975_s_at) / RFU GSTM3 (11746129_a_at) / Fold change /veh GSTM3 (11746129_a_at) / RFU IL23R (11737362_x_at) / Fold change /veh IL23R (11737362_x_at) / RFU TMEM51 (11727254_a_at) / Fold change /veh TMEM51 (11727254_a_at) / RFU PIWIL2 (11732686_x_at) / Fold change /veh PIWIL2 (11732686_x_at) / RFU ORM1 (11744905_x_at) / Fold change /veh ORM1 (11744905_x_at) / RFU CCDC152 (11743942_at) / Fold change /veh CCDC152 (11743942_at) / RFU ECM1 (11717891_a_at) / Fold change /veh ECM1 (11717891_a_at) / RFU IL23R (11748794_a_at) / Fold change /veh IL23R (11748794_a_at) / RFU TNFAIP8L3 (11732012_x_at) / Fold change /veh TNFAIP8L3 (11732012_x_at) / RFU MBOAT4 (11741988_at) / Fold change /veh MBOAT4 (11741988_at) / RFU 11764193_at / Fold change /veh 11764193_at / RFU TMEM53 (11763286_at) / Fold change /veh TMEM53 (11763286_at) / RFU MAGEB2 (11727129_at) / Fold change /veh MAGEB2 (11727129_at) / RFU TMEM200A (11744735_a_at) / Fold change /veh TMEM200A (11744735_a_at) / RFU CCDC152 (11751479_a_at) / Fold change /veh CCDC152 (11751479_a_at) / RFU FAM211A (11726209_a_at) / Fold change /veh FAM211A (11726209_a_at) / RFU RGS16 (11746705_a_at) / Fold change /veh RGS16 (11746705_a_at) / RFU VCAN (11755009_s_at) / Fold change /veh VCAN (11755009_s_at) / RFU RHOB (11743442_s_at) / Fold change /veh RHOB (11743442_s_at) / RFU RGS16 (11720943_a_at) / Fold change /veh RGS16 (11720943_a_at) / RFU RGS16 (11720944_at) / Fold change /veh RGS16 (11720944_at) / RFU, VPS4B / Fold change vs veh, VPS4B / RFU, CREB1 / Fold change vs veh, CREB1 / RFU, DNAJC13 / Fold change vs veh, DNAJC13 / RFU, GNAQ / Fold change vs veh, GNAQ / RFU, CDK5R1 / Fold change vs veh, CDK5R1 / RFU, ZRANB3 / Fold change vs veh, ZRANB3 / RFU, CUL4A / Fold change vs veh, CUL4A / RFU, CCNY / Fold change vs veh, CCNY / RFU, UFL1 / Fold change vs veh, UFL1 / RFU, COG3 / Fold change vs veh, COG3 / RFU, DIAPH2 / Fold change vs veh, DIAPH2 / RFU, SKA2 / Fold change vs veh, SKA2 / RFU, AFF3 / Fold change vs veh, AFF3 / RFU, LMF1 / Fold change vs veh, LMF1 / RFU, IPO11 / Fold change vs veh, IPO11 / RFU, DFFB / Fold change vs veh, DFFB / RFU, FOXP1 / Fold change vs veh, FOXP1 / RFU, CARD8 / Fold change vs veh, CARD8 / RFU, STRN3 / Fold change vs veh, STRN3 / RFU, ADK / Fold change vs veh, ADK / RFU, RASSF2 / Fold change vs veh, RASSF2 / RFU, WIPF1 / Fold change vs veh, WIPF1 / RFU, LARP1B / Fold change vs veh, LARP1B / RFU, RASA1 / Fold change vs veh, RASA1 / RFU, RB1 / Fold change vs veh, RB1 / RFU, PPFIA1 / Fold change vs veh, PPFIA1 / RFU, MAT2A / Fold change vs veh, MAT2A / RFU, CCT5 / Fold change vs veh, CCT5 / RFU, WDR92 / Fold change vs veh, WDR92 / RFU, CUX1 / Fold change vs veh, CUX1 / RFU, TTC7A / Fold change vs veh, TTC7A / RFU, TMEM135 / Fold change vs veh, TMEM135 / RFU, DEPTOR / Fold change vs veh, DEPTOR / RFU, CPM / Fold change vs veh, CPM / RFU, DNAJB6 / Fold change vs veh, DNAJB6 / RFU, CACNA2D3 / Fold change vs veh, CACNA2D3 / RFU, DTX4 / Fold change vs veh, DTX4 / RFU, TFCP2 / Fold change vs veh, TFCP2 / RFU, GMCL1 /// GMCL1P1 / Fold change vs veh, GMCL1 /// GMCL1P1 / RFU, AEBP2 / Fold change vs veh, AEBP2 / RFU, SNHG1 /// SNORD22 /// SNORD25 /// SNORD26 /// SNORD27 /// SNORD28 /// SNORD29 /// SNORD31 / Fold change vs veh, SNHG1 /// SNORD22 /// SNORD25 /// SNORD26 /// SNORD27 /// SNORD28 /// SNORD29 /// SNORD31 / Fold change (Aza/veh), C12orf56 (ProbeSet 11735607_a_at) / Fold change (ACY-1035/veh), C12orf56 (ProbeSet 11735607_a_at) / Fold change (Aza/veh), FGFR1OP (ProbeSet 11751329_s_at) / Fold change (ACY-1035/veh), FGFR1OP (ProbeSet 11751329_s_at) / Fold change (Aza/veh), VPS36 (ProbeSet 11739960_a_at) / Fold change (ACY-1035/veh), VPS36 (ProbeSet 11739960_a_at) / RFU SYPL1 (11715823_x_at) / Fold change /veh SYPL1 (11715823_x_at) / RFU IGFBP7 (11715501_s_at) / Fold change /veh IGFBP7 (11715501_s_at) / RFU REEP3 (11722064_at) / Fold change /veh REEP3 (11722064_at) / RFU IGLL1 (11728026_x_at) / Fold change /veh IGLL1 (11728026_x_at): dose or concentration left out as unconfirmed
Conditions: ProbeSet 11717702_a_at; LIST D

Compound: Nc1ccc(-c2cccs2)cc1NC(=O)c1ccc2c(c1)cc(C1CC1)n2CCN1CCOCC1 [ACY-1035]
- Fold change vs veh, RB1: 0.96
